Results taken from PubChem BioAssay (NCI).
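1) Cells in 96-well plates. 2) Compound, 48 h, 5 concentrations. 3) Linear interpolation between surrounding doses. 4) Unreached endpoint = highest concentration. TGI: total growth inhibition.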

Columns and labels:
Test in all cases: DTP human tumour cell line panel, 48 h
[1] = system: 786-0 renal
[2] = system: A498 renal
[3] = system: A549 NSCLC
[4] = system: ACHN renal
[5] = system: CAKI-1 renal
[6] = system: CCRF-CEM leukemia
[7] = system: COLO 205 colon
[8] = system: DU-145 prostate
[9] = system: EKVX NSCLC
[10] = system: HCC-2998 colon
[11] = system: HCT-116 colon
[12] = system: HCT-15 colon
[13] = system: HL-60(TB) leukemia
[14] = system: HOP-62 NSCLC
[15] = system: HOP-92 NSCLC
[16] = system: HS 578T breast
[17] = system: HT29 colon
[18] = system: IGROV1 ovarian
[19] = system: K-562 leukemia
[20] = system: KM12 colon
[21] = system: LOX IMVI melanoma
[22] = system: M14 melanoma
[23] = system: MALME-3M melanoma
[24] = system: MCF7 breast
[25] = system: MDA-MB-231 breast
[26] = system: MDA-MB-435
[27] = system: MDA-N
[28] = system: MOLT-4 leukemia
[29] = system: NCI-H226 lung
[30] = system: NCI-H23 lung
[31] = system: NCI-H460 lung
[32] = system: NCI-H522 lung
[33] = system: NCI/ADR-RES ovarian
[34] = system: OVCAR-3 ovarian
[35] = system: OVCAR-4 ovarian
[36] = system: OVCAR-8 ovarian
[37] = system: PC-3 prostate
[38] = system: RPMI-8226 leukemia
[39] = system: RXF 393 renal
[40] = system: SF-268 CNS
[41] = system: SF-295 CNS
[42] = system: SF-539 CNS
[43] = system: SK-MEL-2 melanoma
[44] = system: SK-MEL-28 melanoma
[45] = system: SK-MEL-5 melanoma
[46] = system: SK-OV-3 ovarian
[47] = system: SN12C renal
[48] = system: SNB-19 CNS
[49] = system: SNB-75 CNS
[50] = system: SR leukemia
[51] = system: SW-620 colon
[52] = system: T-47D breast
[53] = system: TK-10 renal
[54] = system: U251 CNS
[55] = system: UACC-257 melanoma
[56] = system: UACC-62 melanoma
[57] = system: UO-31 renal
[58] = system: BT-549 breast
[59] = system: OVCAR-5 ovarian

Measured: TGI

CCOC(CNCCC(=O)OC)OCC
> 10 µM: [1] | [2] | [3] | [4] | [5] | [6] | [7] | [8] | [9] | [10] | [11] | [12] | [13] | [14] | [15] | [16] | [17] | [18] | [19] | [20] | [21] | [22] | [23] | [24] | [25] | [26] | [27] | [28] | [29] | [30] | [31] | [32] | [33] | [34] | [35] | [36] | [37] | [38] | [39] | [40] | [41] | [42] | [43] | [44] | [45] | [46] | [47] | [48] | [49] | [50] | [51] | [52] | [53] | [54] | [55] | [56] | [57]

COc1ccc(/C=C2\C[C@H]3[C@@H]4CCC5=C/C(=N/O)CC[C@]5(C)[C@H]4CC[C@]3(C)\C2=N\O)cc1OC
32 µM: [9]
60.3 µM: [38]
14.9 µM: [45]
54.5 µM: [43]
> 100 µM: [1] | [2] | [3] | [4] | [58] | [5] | [6] | [8] | [10] | [11] | [12] | [14] | [15] | [16] | [17] | [18] | [19] | [20] | [21] | [22] | [23] | [24] | [26] | [27] | [29] | [30] | [31] | [32] | [33] | [34] | [35] | [59] | [36] | [37] | [39] | [40] | [42] | [44] | [46] | [47] | [48] | [49] | [50] | [51] | [52] | [55] | [56] | [57]
76.8 µM: [13]
94.3 µM: [28]
88.4 µM: [41]

O=C1NCC(NC(=O)C(F)(F)F)c2c(Br)sc(Br)c21 (centres undefined)
> 100 µM: [1] | [2] | [3] | [4] | [58] | [5] | [6] | [7] | [8] | [9] | [10] | [11] | [12] | [14] | [15] | [17] | [18] | [19] | [20] | [21] | [22] | [23] | [24] | [25] | [26] | [27] | [28] | [29] | [30] | [31] | [32] | [33] | [34] | [35] | [59] | [36] | [37] | [38] | [39] | [40] | [41] | [42] | [43] | [44] | [45] | [46] | [47] | [48] | [49] | [50] | [51] | [52] | [53] | [54] | [55] | [56] | [57]

O=C(CNc1c(Cl)cccc1Cl)NC1C=Cc2ccc(S(=O)(=O)Nc3c(Cl)cccc3Cl)cc2C1=O (centres undefined)
> 100 µM: [1] | [3] | [4] | [58] | [5] | [6] | [7] | [8] | [9] | [10] | [11] | [12] | [13] | [14] | [15] | [16] | [17] | [18] | [19] | [20] | [21] | [22] | [23] | [24] | [25] | [26] | [27] | [28] | [29] | [30] | [31] | [32] | [33] | [34] | [35] | [59] | [36] | [37] | [38] | [40] | [41] | [42] | [43] | [44] | [46] | [47] | [48] | [49] | [50] | [51] | [53] | [54] | [55] | [56] | [57]
